Measurements from patent US8680111B2 (Pfizer Inc., priority 2012, dated 2014).

Assays:
[1] = target: T1, WT EML4-ALK (NIH-3T3 EML4-ALK wt v1 cells) (Homo sapiens, UniProt Q9UM73); assay: Cellular phospho-ALK (Tyr1604) ELISA assay for WT EML4-ALK; type: cell-based; conditions: 1 hour, read-out: ELISA assay for WT EML4-ALK (IC50)
T1 construct: expressed in transfected cells; the other entry of the earlier key: EML4 (Q9HC35, Echinoderm microtubule-associated protein-like 4)
Method: Cellular Phospho-ALK (Tyr1604) ELISA Assay for EML4-ALK:
The cells were maintained at 37° C. in a 5% CO2 incubator in DMEM (Invitrogen, Carlsbad, Calif.) medium supplemented with 1% L-glutamine, 1% penicillin and streptomycin, 1 ug/ml puromycin and 10% new born calf serum (NCS) in T-75 flasks.
Cells were washed with PBS and re-suspended in DMEM medium supplemented with 0.5% NCS and 1% pen/strep and seeded into 96-well plates at density of 20,000 cells/well/100 μl and incubated in the incubator at 37° C. and 5% CO2. After 20 hours of incubation, 100 μl of assay media (DMEM) in presence of designated PF-compounds concentrations or controls (DMSO) were added into plates and incubated for 1 hour in the incubator. Media was then removed and lysis buffer, containing phosphatase inhibitors and phenylmethanesulfonyl fluoride (PMSF), was added to wells and shaken at 4° C. for 30 minutes to generate protein lysates.
A phospho-ALK (Tyr1604) rabbit antibody was coated onto the 96-well microplates. 50 μl of cell lysates were added to the antibody coated plate and incubated at room temperature for 2 hours. Following extensive washing with 0.1% Tween 20 in PBS to remove unbound materials, ALK mouse mAb was added to detect captured phospho-ALK (Tyr1604) and phospho-ALK fusion proteins. Anti-mouse IgG, HRP-linked antibody was then used to recognize the bound detection antibody. Finally, the chemiluminescent reagent was added and incubated for 10 minutes for signal development. The assay plates were read in the Envision plate reader in the luminescent mode. IC50 values were calculated by a concentration-response curve fitting using a four-parameter analytic method.

[2] = target: T2, human recombinant L1196M ALK kinase domain (amino acids 1093-1411) (Homo sapiens, UniProt Q9UM73, L1196M); assay: L1196M mutant ALK enzyme assay (microfluidic mobility shift); type: biochemical; conditions: ATP 60 μM, 0.5 nM enzyme, competitive inhibition fit; read-out: L1196M ALK enzyme assay (Ki)
T2 construct: ALK kinase domain (amino acids 1093-1411); made in house

[3] = target: T3, human recombinant wild-type ALK kinase domain (amino acids 1093-1411) (Homo sapiens, UniProt Q9UM73); assay: Wild-type ALK enzyme assay (microfluidic mobility shift); type: biochemical; conditions: ATP 60 μM, competitive inhibition fit, read-out: WT ALK enzyme assay (Ki)
T3 construct: ALK kinase domain (amino acids 1093-1411); made in house
Method: The reactions were incubated for 1 h at room temperature, stopped by the addition of 0.1 M EDTA, pH 8, and the extent of reactions (˜15-20% conversion with no inhibitor) was determined after electrophoretic separation of the fluorescently labeled peptide substrate and phosphorylated product on an LabChip EZ Reader II (Caliper Life Sciences, Hopkinton, Mass.).

[4] = target: T4, L1196M EML4-ALK (NIH-3T3 EML4-ALK v1 L1196M cells) (Homo sapiens, UniProt Q9UM73, L1196M); assay: Cellular phospho-ALK (Tyr1604) ELISA assay for L1196M EML4-ALK; type: cell-based; conditions: NIH-3T3 EML4-ALK v1 L1196M cells, 1 hour, phospho-ALK (Tyr1604); read-out: ELISA assay for L1196M EML4-ALK (IC50)
T4 construct: expressed in transfected cells; the other entry of the earlier key: EML4 (Q9HC35, Echinoderm microtubule-associated protein-like 4)

Molecule	IC50 [1] [nM]	Ki [2] [nM]	Ki [3] [nM]	IC50 [4] [nM]
CCn1ncc2c1-c1cnc(N)c(c1)O[C@H](C)c1cc(F)ccc1C(=O)N(C)C2 [Example 27, (10R)-7-amino-3-ethyl-12-fluoro-10,16-dimethyl-16,17-dihydro-3H-8,4-(metheno)pyrazolo[3,4-h][2,5,11]benzoxadiazacyclotetradecin-15(10H)-one]	9.15	5.3	0.38	157
7-amino-3-tert-butyl-1,10,16-trimethyl-16,17-dihydro-1H-8,4-(metheno)-pyrazolo[4,3-g]pyrido[2,3-l][1,4,10]oxadiazacyclotetradecin-15(10H)-one [Example 120]	2110	821	146	> 10000
COc1nccc2c1-c1cnc(N)c(n1)OC(C)c1cc(F)ccc1C(=O)N(C)C2 (single isomer, unassigned) [Example 31, 8-amino-13-fluoro-4-methoxy-11,17-dimethyl-17,18-dihydro-9,5-(azeno)pyrido[3,4-h][2,5,11]benzoxadiazacyclotetradecin-16(11H)-one]	53.2	15.8	5.96	660
CCN1Cc2c(c(C)nn2C)-c2cnc(N)c(c2)OC(C)c2cc(F)ccc2C1=O (single isomer, unassigned) [Example 9, 7-amino-16-ethyl-12-fluoro-1,3,10-trimethyl-16,17-dihydro-1H-8,4-(metheno)pyrazolo[4,3-h][2,5,11]benzoxadiazacyclotetradecin-15(10H)-one]	0.35	1.06	0.2	9.29
C[C@H]1Oc2cc(cnc2N)-c2cc(S(C)(=O)=O)ccc2CN(C)Cc2ccc(F)cc21 [Example 35, (5R)-3-fluoro-5,17-dimethyl-13-(methylsulfonyl)-5,16,17,18-tetrahydro-7,11-(metheno)dibenzo[g,l][1,4,10]oxadiazacyclotetradecin-8-amine]	0.98	1.1	< 0.261	14.3
COc1c2c(nn1C)CN(C)C(=O)c1ccc(F)cc1C(C)Oc1cc-2cnc1N (single isomer, unassigned) [Example 19, 7-amino-12-fluoro-3-methoxy-2,10,16-trimethyl-16,17-dihydro-2H-8,4-(metheno)pyrazolo[4,3-h][2,5,11]benzoxadiazacyclotetradecin-15(10H)-one]	4.89	0.9	< 0.2	110
COc1nn(C)c2c1-c1cnc(N)c(c1)OC(CF)c1cc(F)ccc1C(=O)N(C)C2 (single isomer, unassigned) [Example 86, 7-amino-12-fluoro-10-(fluoromethyl)-3-methoxy-1,16-dimethyl-16,17-dihydro-1H-8,4-(metheno)pyrazolo[4,3-h][2,5,11]benzoxadiazacyclotetradecin-15(10H)-one]	0.45	0.1	< 0.2	2.57
CC1Oc2cc(F)ccc2C(=O)N(C)Cc2nn(C)c(C#N)c2-c2cnc(N)c1c2 (single isomer, unassigned) [Example 77, 7-amino-12-fluoro-2,9,16-trimethyl-15-oxo-2,15,16,17-tetrahydro-9H-8,4-(metheno)pyrazolo[4,3-h][1,5,11]benzoxadiazacyclotetradecine-3-carbonitrile]	3390	45.8	75	3320
CN1Cc2nn(C)c(C#N)c2-c2cnc(N)c(c2)OCc2cc(F)ccc2C1=O [Example 4, 7-amino-12-fluoro-2,16-dimethyl-15-oxo-10,15,16,17-tetrahydro-2H-8,4-(metheno)pyrazolo[4,3-h][2,5,11]benzoxadiazacyclotetradecine-3-carbonitrile]	28.1	1.2	< 0.2	184

Second part, the molecule after the results:

IC50 [1] [nM]	Ki [2] [nM]	Ki [3] [nM]	IC50 [4] [nM]	Molecule
3.23	0.3	0.048	31.7	C[C@H]1Oc2nc(cnc2N)-c2c(nn(C3COC3)c2C#N)CN(C)C(=O)c2ccc(F)cc21 [Example 93, (10R)-7-amino-12-fluoro-10,16-di methyl-2-(oxetan-3-yl)-15-oxo-10,15,16,17-tetrahydro-2H-8,4-(azeno) pyrazolo[4,3-h][2,5,11]benzoxadiazacyclotetradecine-3-carbonitrile]
7.79	13.4	1.6	264	CC1Oc2cc(cnc2N)-c2c(nn(C)c2C#N)COCc2ccc(F)cc21 (centres unmarked) [Example 119]
3.29	1.36	0.271	78.2	C[C@H]1Oc2cc(cnc2N)-c2c(C#N)nn(C)c2CN(C)C(=O)c2ccc(F)cc21 [Example 114, (10R)-7-amino-12-fluoro-1,10,16-trimethyl-15-oxo-10,15,16,17-tetrahydro-1H-8,4-(metheno)pyrazolo[4,3-h][2,5,11]benzoxadiazacyclotetradecine-3-carbonitrile]
217	64.7	17.8	1400	Cn1nc2c(c1C#N)-c1cnc(N)c(c1)OCc1cc(F)ccc1COC2 [Example 118, 7-amino-12-fluoro-2-methyl-2,10,15,17-tetrahydro-8,4-(metheno)pyrazolo-[4,3-h][2,11,5]benzodioxazacyclotetradecine-3-carbonitrile]
28.5	4.8	0.6	419	C[C@H]1Oc2cc(cnc2N)-c2c(nnn2C2CCC2)CN(C)C(=O)c2ccc(F)cc21 [Example 136, (10R)-7-amino-3-cyclobutyl-12-fluoro-10,16-dimethyl-16,17-dihydro-3H-8,4-(metheno)[1,2,3]triazolo[4,5-h][2,5,11]benzoxadiazacyclotetradecin-15(10H)-one]
45.9	12.6	2.1	814	C[C@H]1Oc2cc(cnc2N)-c2c(nnn2CC2CCC2)CN(C)C(=O)c2ccc(F)cc21 [Example 135, (10R)-7-amino-3-(cyclobutylmethyl)-12-fluoro-10,16-dimethyl-16,17-dihydro-3H-8,4-(metheno)[1,2,3]triazolo[4,5-h][2,5,11]benzoxadiazacyclotetradecin-15(10H)-one]
9.99	7.3	0.56	447	CCc1snc2c1-c1cnc(N)c(c1)O[C@H](C)c1cc(F)ccc1C(=O)N(C)C2 [Example 110, (10R)-7-amino-3-ethyl-12-fluoro-10,16-dimethyl-16,17-dihydro-8,4-(metheno)[1,2]thiazolo[4,3-h][2,5,11]benzoxadiazacyclotetradecin-15(10H)-one]
35.2	17.8	2.18	393	C[C@H]1Oc2cc(cnc2N)-c2c(C#N)noc2CN(C)C(=O)c2ccc(F)cc21 [Example 117, (10R)-7-amino-12-fluoro-10,16-dimethyl-15-oxo-10,15,16,17-tetrahydro-8,4-(metheno)[1,2]oxazolo[4,5-h][2,5,11]benzoxadiazacyclotetradecine-3-carbonitrile]
